Test system: HEK293T cells carrying the ATF4 luciferase reporter
Assay: ATF4-Luc assay, in vitro model of Vanishing Cell White Matter Disease (VWMD)
Assay type: cell-based
Conditions: Homo sapiens, HEK-293T, 1 μg/mL tunicamycin, 7 hours, One Glo luminescence
Outline: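 Stable HEK293T line with human ATF4 5′-UTR–firefly luciferase reporter treated with 1 μg/mL tunicamycin plus 200 nM compound for 7 h. Luminescence read; EC50 derived.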

Row | Structure (SMILES) | EC50 [nM]
1 | Cc1ocnc1C(=O)NC12CC(NC(=O)COc3ccc(Cl)c(F)c3)(C1)C2 [Compound 909, N-{3-[2-(4-chloro-3-fluorophenoxy)acetamido]bicyclo[1.1.1]pentan-1-yl}-5-methyl-1,3-oxazole-4-carboxamide] | > 2000
2 | O=C(COc1ccc(Cl)c(F)c1)NC12CC(NC(=O)c3ncc(F)cc3F)(C1)C2 [Compound 910, N-{3-[2-(4-chloro-3-fluorophenoxy)acetamido]bicyclo[1.1.1]pentan-1-yl}-3,5-difluoropyridine-2-carboxamide] | 50 to 250
3 | CC(C)c1cccc(C(=O)NC23CCC(NC(=O)COc4ccc(Cl)c(F)c4)(CC2)C(O)C3)n1 (centres unmarked) [Compound 911, N-{4-[2-(4-chloro-3-fluorophenoxy)acetamido]-3-hydroxybicyclo[2.2.2]octan-1-yl}-6-(propan-2-yl)pyridine-2-carboxamide] | 250 to 1000
4 | CC(C)Oc1ccc(C(=O)NC23CCC(NC(=O)COc4ccc(Cl)c(F)c4)(CC2)C(O)C3)nc1 (centres unmarked) [Compound 912, N-{4-[2-(4-chloro-3-fluorophenoxy)acetamido]-3-hydroxybicyclo[2.2.2]octan-1-yl}-5-[(propan-2-yl)oxy]pyridine-2-carboxamide] | < 50
5 | Cc1cc(C(=O)NC23CC(NC(=O)COc4ccc(Cl)c(F)c4)(C2)C3)n(C(F)F)n1 [Compound 913, N-{3-[2-(4-chloro-3-fluorophenoxy)acetamido]bicyclo[1.1.1]pentan-1-yl}-1-(difluoromethyl)-3-methyl-1H-pyrazole-5-carboxamide] | 250 to 1000
6 | Cc1cccc(C(=O)NC23CCC(NC(=O)COc4ccc(Cl)c(F)c4)(CC2)C(O)C3)n1 (centres unmarked) [Compound 914, N-{4-[2-(4-chloro-3-fluorophenoxy)acetamido]-3-hydroxybicyclo[2.2.2]octan-1-yl}-6-methylpyridine-2-carboxamide] | 50 to 250
7 | Cc1ccnc(C(=O)NC23CCC(NC(=O)COc4ccc(Cl)c(F)c4)(CC2)C(O)C3)c1 (centres unmarked) [Compound 915, N-{4-[2-(4-chloro-3-fluorophenoxy)acetamido]-3-hydroxybicyclo[2.2.2]octan-1-yl}-4-methylpyridine-2-carboxamide] | 250 to 1000
8 | Cc1nc(C(=O)NC23CCC(NC(=O)COc4ccc(Cl)c(F)c4)(CC2)C(O)C3)ccc1C#N (centres unmarked) [Compound 916, N-{4-[2-(4-chloro-3-fluorophenoxy)acetamido]-3-hydroxybicyclo[2.2.2]octan-1-yl}-5-cyano-6-methylpyridine-2-carboxamide] | 50 to 250
9 | Cc1nc(C(=O)NC23CCC(NC(=O)COc4ccc(Cl)c(F)c4)(CC2)C(O)C3)ccc1F (centres unmarked) [Compound 917, N-{4-[2-(4-chloro-3-fluorophenoxy)acetamido]-3-hydroxybicyclo[2.2.2]octan-1-yl}-5-fluoro-6-methylpyridine-2-carboxamide] | 50 to 250
10 | CCc1ccnc(C(=O)NC23CCC(NC(=O)COc4ccc(Cl)c(F)c4)(CC2)C(O)C3)c1 (centres unmarked) [Compound 918, N-{4-[2-(4-chloro-3-fluorophenoxy)acetamido]-3-hydroxybicyclo[2.2.2]octan-1-yl}-4-ethylpyridine-2-carboxamide] | 250 to 1000
11 | CCc1csc(C(=O)NC23CC(NC(=O)COc4ccc(Cl)c(F)c4)(C2)C3)n1 [Compound 919, N-{3-[2-(4-chloro-3-fluorophenoxy)acetamido]bicyclo[1.1.1]pentan-1-yl}-4-ethyl-1,3-thiazole-2-carboxamide] | < 50
12 | O=C(COc1ccc(Cl)c(Cl)c1)NC12CC(NC(=O)c3cnc4ccccc4n3)(C1)C2 [Compound 920, N-{3-[2-(3,4-dichlorophenoxy)acetamido]bicyclo[1.1.1]pentan-1-yl}quinoxaline-2-carboxamide] | < 50
13 | O=C(COc1ccc(Cl)c(Cl)c1)NC12CC(NC(=O)c3cnoc3)(C1)C2 [Compound 921, N-{3-[2-(3,4-dichlorophenoxy)acetamido]bicyclo[1.1.1]pentan-1-yl}-1,2-oxazole-4-carboxamide] | 1000 to 2000
14 | COc1ccc(C(=O)NC23CCC(NC(=O)COc4ccc(Cl)c(F)c4)(CC2)C(O)C3)nc1 (centres unmarked) [Compound 922, N-{4-[2-(4-chloro-3-fluorophenoxy)acetamido]-3-hydroxybicyclo[2.2.2]octan-1-yl}-5-methoxypyridine-2-carboxamide] | 250 to 1000
15 | COc1cccc(C(=O)NC23CCC(NC(=O)COc4ccc(Cl)c(F)c4)(CC2)C(O)C3)n1 (centres unmarked) [Compound 923, N-{4-[2-(4-chloro-3-fluorophenoxy)acetamido]-3-hydroxybicyclo[2.2.2]octan-1-yl}-6-methoxypyridine-2-carboxamide] | 50 to 250
16 | COc1ccnc(C(=O)NC23CCC(NC(=O)COc4ccc(Cl)c(F)c4)(CC2)C(O)C3)c1 (centres unmarked) [Compound 924, N-{4-[2-(4-chloro-3-fluorophenoxy)acetamido]-3-hydroxybicyclo[2.2.2]octan-1-yl}-4-methoxypyridine-2-carboxamide] | > 2000

Row | Structure (SMILES) | EC50 [nM]
17 | COCc1nc(C(=O)NC23CC(NC(=O)COc4ccc(Cl)c(Cl)c4)(C2)C3)cs1 [Compound 925, N-{3-[2-(3,4-dichlorophenoxy)acetamido]bicyclo[1.1.1]pentan-1-yl}-2-(methoxymethyl)-1,3-thiazole-4-carboxamide] | < 50
18 | COCc1nc(C(=O)NC23CC(NC(=O)COc4ccc(Cl)c(F)c4)(C2)C3)cs1 [Compound 926, N-{3-[2-(4-chloro-3-fluorophenoxy)acetamido]bicyclo[1.1.1]pentan-1-yl}-2-(methoxymethyl)-1,3-thiazole-4-carboxamide] | 50 to 250
19 | O=C(COc1ccc(Cl)c(Cl)c1)NC12CC(NC(=O)c3ccc(C(F)F)nc3)(C1)C2 [Compound 927, N-{3-[2-(3,4-dichlorophenoxy)acetamido]bicyclo[1.1.1]pentan-1-yl}-6-(difluoromethyl)pyridine-3-carboxamide] | 50 to 250
20 | O=C(COc1ccc(Cl)c(F)c1)NC12CC(NC(=O)c3ccc(-c4ccccc4)cn3)(C1)C2 [Compound 928, N-{3-[2-(4-chloro-3-fluorophenoxy)acetamido]bicyclo[1.1.1]pentan-1-yl}-5-phenylpyridine-2-carboxamide] | 50 to 250
21 | O=C(COc1ccc(Cl)c(F)c1)NC12CC(NC(=O)c3ccc4cc(F)ccc4n3)(C1)C2 [Compound 929, N-{3-[2-(4-chloro-3-fluorophenoxy)acetamido]bicyclo[1.1.1]pentan-1-yl}-6-fluoroquinoline-2-carboxamide] | < 50
22 | O=C(COc1ccc(Cl)c(F)c1)NC12CCC(NC(=O)c3ccc4cc(F)ccc4n3)(CC1)[C@@H](O)C2 [Compound 930, N-{(2S)-4-[2-(4-chloro-3-fluorophenoxy)acetamido]-2-hydroxybicyclo[2.2.2]octan-1-yl}-6-fluoroquinoline-2-carboxamide] | < 50
23 | O=C(COc1ccc(Cl)c(F)c1)NC12CCC(NC(=O)c3cnc(-c4ccccc4)o3)(CC1)C[C@@H]2O [Compound 931, N-{(3S)-4-[2-(4-chloro-3-fluorophenoxy)acetamido]-3-hydroxybicyclo[2.2.2]octan-1-yl}-2-phenyl-1,3-oxazole-5-carboxamide] | < 50
24 | N#Cc1ccnc(C(=O)NC23CCC(NC(=O)COc4ccc(Cl)c(F)c4)(CC2)C(O)C3)c1 (centres unmarked) [Compound 932, N-{4-[2-(4-chloro-3-fluorophenoxy)acetamido]-3-hydroxybicyclo[2.2.2]octan-1-yl}-4-cyanopyridine-2-carboxamide] | 50 to 250
25 | O=C(COc1ccc(Cl)c(F)c1)NC12CCC(NC(=O)c3cc(C(F)(F)F)ccn3)(CC1)CC2O (centres unmarked) [Compound 933, N-{4-[2-(4-chloro-3-fluorophenoxy)acetamido]-3-hydroxybicyclo[2.2.2]octan-1-yl}-4-(trifluoromethyl)pyridine-2-carboxamide] | 50 to 250
26 | O=C(COc1ccc(Cl)c(F)c1)NC12CCC(NC(=O)c3cc(-n4ccnc4)ccn3)(CC1)CC2O (centres unmarked) [Compound 934, N-{4-[2-(4-chloro-3-fluorophenoxy)acetamido]-3-hydroxybicyclo[2.2.2]octan-1-yl}-4-(1H-imidazol-1-yl)pyridine-2-carboxamide] | 1000 to 2000
27 | O=C(COc1ccc(Cl)c(F)c1)NC12CCC(NC(=O)c3cc(N4CCOCC4)ccn3)(CC1)CC2O (centres unmarked) [Compound 935, N-{4-[2-(4-chloro-3-fluorophenoxy)acetamido]-3-hydroxybicyclo[2.2.2]octan-1-yl}-4-(morpholin-4-yl)pyridine-2-carboxamide] | > 2000
28 | O=C(COc1ccc(Cl)c(F)c1)NC12CCC(NC(=O)c3cc(F)ccn3)(CC1)CC2O (centres unmarked) [Compound 936, N-{4-[2-(4-chloro-3-fluorophenoxy)acetamido]-3-hydroxybicyclo[2.2.2]octan-1-yl}-4-fluoropyridine-2-carboxamide] | 50 to 250
29 | N#Cc1ccc(C(=O)NC23CCC(NC(=O)COc4ccc(Cl)c(F)c4)(CC2)C(O)C3)nc1 (centres unmarked) [Compound 937, N-{4-[2-(4-chloro-3-fluorophenoxy)acetamido]-3-hydroxybicyclo[2.2.2]octan-1-yl}-5-cyanopyridine-2-carboxamide] | < 50
30 | O=C(COc1ccc(Cl)c(F)c1)NC12CCC(NC(=O)c3ccc(C4CC4)cn3)(CC1)CC2O (centres unmarked) [Compound 938, N-{4-[2-(4-chloro-3-fluorophenoxy)acetamido]-3-hydroxybicyclo[2.2.2]octan-1-yl}-5-cyclopropylpyridine-2-carboxamide] | 50 to 250
31 | O=C(COc1ccc(Cl)c(F)c1)NC12CCC(NC(=O)c3ccc(-c4ccc(F)cc4)cn3)(CC1)CC2O (centres unmarked) [Compound 939, N-{4-[2-(4-chloro-3-fluorophenoxy)acetamido]-3-hydroxybicyclo[2.2.2]octan-1-yl}-5-(4-fluorophenyl)pyridine-2-carboxamide] | > 2000
32 | O=C(COc1ccc(Cl)c(F)c1)NC12CCC(NC(=O)c3ccc(N4CCCC4)cn3)(CC1)CC2O (centres unmarked) [Compound 940, N-{4-[2-(4-chloro-3-fluorophenoxy)acetamido]-3-hydroxybicyclo[2.2.2]octan-1-yl}-5-(pyrrolidin-1-yl)pyridine-2-carboxamide] | 50 to 250

— patent US10913727B2, “Modulators of the integrated stress pathway” (Calico Life Sciences LLC, priority 2016, dated 2021)
